Assays:
Assay in all cases: KinaseProfiler panel
Assay type in all cases: biochemical
Settings in all cases: activity remaining
A-Raf(h) = A-Raf(h) (Homo sapiens (Human), UniProt P10398); set-up: dose or concentration left out as unconfirmed
ALK(h) = ALK(h) (Homo sapiens (Human), UniProt Q9UM73)
ALK2(h) = ALK2(h) (Homo sapiens (Human), UniProt Q04771); set-up: dose or concentration left out as unconfirmed
Aurora-A(h) = Aurora-A(h) (Homo sapiens (Human), UniProt O14965); set-up: dose or concentration left out as unconfirmed
cKit(h) = cKit(h) (Homo sapiens (Human), UniProt P10721); set-up: dose or concentration left out as unconfirmed
EphA2(h) = EphA2(h) (Homo sapiens (Human), UniProt P29317); set-up: dose or concentration left out as unconfirmed
EphA5(h) = EphA5(h) (Homo sapiens (Human), UniProt P54756); set-up: dose or concentration left out as unconfirmed
EphA8(h) = EphA8(h) (Homo sapiens (Human), UniProt P29322); set-up: dose or concentration left out as unconfirmed
FGFR4(h) = FGFR4(h) (Homo sapiens (Human), UniProt P22455); set-up: dose or concentration left out as unconfirmed
Flt3(h) = Flt3(h) (Homo sapiens (Human), UniProt P36888); set-up: dose or concentration left out as unconfirmed
IR(h) = IR(h) (Homo sapiens (Human), UniProt P06213); set-up: dose or concentration left out as unconfirmed
Itk(h) = Itk(h) (Homo sapiens (Human), UniProt Q08881); set-up: dose or concentration left out as unconfirmed
Lyn(h) = Lyn(h) (Homo sapiens (Human), UniProt P07948); set-up: dose or concentration left out as unconfirmed
MAP4K4(h) = MAP4K4(h) (Homo sapiens (Human), UniProt O95819); set-up: dose or concentration left out as unconfirmed
MAPKAP-K2(h) = MAPKAP-K2(h) (Homo sapiens (Human), UniProt P49137); set-up: dose or concentration left out as unconfirmed
MAPKAP-K3(h) = MAPKAP-K3(h) (Homo sapiens (Human), UniProt Q16644); set-up: dose or concentration left out as unconfirmed
MARK4(h) = MARK4(h) (Homo sapiens (Human), UniProt Q96L34); set-up: dose or concentration left out as unconfirmed
MLK4(h) = MLK4(h) (Homo sapiens (Human), UniProt Q5TCX8); set-up: dose or concentration left out as unconfirmed
NEK4(h) = NEK4(h) (Homo sapiens (Human), UniProt P51957); set-up: dose or concentration left out as unconfirmed
PDHK4(h) = PDHK4(h) (Homo sapiens (Human), UniProt Q16654); set-up: dose or concentration left out as unconfirmed
[1] = biological target: PI3 Kinase (p110a/p85a)(h) (Homo sapiens (Human), UniProt P42336); set-up: dose or concentration left out as unconfirmed
Pim-3(h) = Pim-3(h) (Homo sapiens (Human), UniProt Q86V86); set-up: dose or concentration left out as unconfirmed
PKA(h) = PKA(h) (Homo sapiens (Human), UniProt P17612); set-up: dose or concentration left out as unconfirmed
PKBγ(h) = PKBγ(h) (Homo sapiens (Human), UniProt Q9Y243); set-up: dose or concentration left out as unconfirmed
PKCδ(h) = PKCδ(h) (Homo sapiens (Human), UniProt Q05655); set-up: dose or concentration left out as unconfirmed
Plk4(h) = Plk4(h) (Homo sapiens (Human), UniProt O00444); set-up: dose or concentration left out as unconfirmed
PRAK(h) = PRAK(h) (Homo sapiens (Human), UniProt Q8IW41); set-up: dose or concentration left out as unconfirmed
PRK1(h) = PRK1(h) (Homo sapiens (Human), UniProt Q16512); set-up: dose or concentration left out as unconfirmed
Rsk3(h) = Rsk3(h) (Homo sapiens (Human), UniProt Q15349); set-up: dose or concentration left out as unconfirmed
SNRK(h) = SNRK(h) (Homo sapiens (Human), UniProt Q9NRH2); set-up: dose or concentration left out as unconfirmed
STK39(h) = STK39(h) (Homo sapiens (Human), UniProt Q9UEW8)
Tec(h) activated = Tec(h) activated (Homo sapiens (Human), UniProt P42680); set-up: dose or concentration left out as unconfirmed
TTBK1(h) = TTBK1(h) (Homo sapiens (Human), UniProt Q5TCY1); set-up: dose or concentration left out as unconfirmed
TTBK1(h), sequence (Q5TCY1 whole entry): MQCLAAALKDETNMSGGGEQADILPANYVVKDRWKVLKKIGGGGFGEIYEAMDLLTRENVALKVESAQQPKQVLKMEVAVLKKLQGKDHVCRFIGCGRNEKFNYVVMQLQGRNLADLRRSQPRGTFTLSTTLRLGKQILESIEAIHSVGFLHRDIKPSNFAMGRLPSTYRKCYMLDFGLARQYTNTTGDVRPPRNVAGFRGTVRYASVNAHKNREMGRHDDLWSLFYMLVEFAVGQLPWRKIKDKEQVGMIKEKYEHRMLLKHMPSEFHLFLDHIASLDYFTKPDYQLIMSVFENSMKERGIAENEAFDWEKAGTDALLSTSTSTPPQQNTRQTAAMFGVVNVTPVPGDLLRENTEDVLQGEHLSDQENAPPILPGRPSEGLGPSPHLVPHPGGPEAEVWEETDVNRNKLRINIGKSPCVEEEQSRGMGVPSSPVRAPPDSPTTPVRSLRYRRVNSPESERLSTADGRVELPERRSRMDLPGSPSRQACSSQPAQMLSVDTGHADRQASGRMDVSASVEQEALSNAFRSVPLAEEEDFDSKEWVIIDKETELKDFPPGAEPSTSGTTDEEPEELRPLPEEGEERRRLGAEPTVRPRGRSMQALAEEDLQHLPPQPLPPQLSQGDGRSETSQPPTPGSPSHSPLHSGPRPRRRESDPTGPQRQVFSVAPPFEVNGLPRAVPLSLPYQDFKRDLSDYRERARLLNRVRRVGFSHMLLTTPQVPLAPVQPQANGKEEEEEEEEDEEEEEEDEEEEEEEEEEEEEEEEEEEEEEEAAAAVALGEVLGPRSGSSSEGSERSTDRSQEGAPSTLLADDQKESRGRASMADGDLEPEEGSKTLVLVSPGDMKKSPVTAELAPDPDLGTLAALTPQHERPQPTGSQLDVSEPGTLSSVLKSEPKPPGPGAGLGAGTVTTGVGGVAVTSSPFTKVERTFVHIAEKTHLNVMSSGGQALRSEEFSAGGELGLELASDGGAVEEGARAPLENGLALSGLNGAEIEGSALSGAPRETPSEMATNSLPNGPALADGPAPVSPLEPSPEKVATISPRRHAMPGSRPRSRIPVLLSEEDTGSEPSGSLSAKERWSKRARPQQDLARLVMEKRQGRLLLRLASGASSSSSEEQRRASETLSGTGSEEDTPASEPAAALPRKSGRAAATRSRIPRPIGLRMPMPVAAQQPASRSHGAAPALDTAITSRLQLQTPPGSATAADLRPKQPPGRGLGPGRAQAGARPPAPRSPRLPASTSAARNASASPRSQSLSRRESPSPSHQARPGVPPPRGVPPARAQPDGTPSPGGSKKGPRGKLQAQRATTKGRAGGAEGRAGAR

EphA2(h), sequence (P29317 24-976): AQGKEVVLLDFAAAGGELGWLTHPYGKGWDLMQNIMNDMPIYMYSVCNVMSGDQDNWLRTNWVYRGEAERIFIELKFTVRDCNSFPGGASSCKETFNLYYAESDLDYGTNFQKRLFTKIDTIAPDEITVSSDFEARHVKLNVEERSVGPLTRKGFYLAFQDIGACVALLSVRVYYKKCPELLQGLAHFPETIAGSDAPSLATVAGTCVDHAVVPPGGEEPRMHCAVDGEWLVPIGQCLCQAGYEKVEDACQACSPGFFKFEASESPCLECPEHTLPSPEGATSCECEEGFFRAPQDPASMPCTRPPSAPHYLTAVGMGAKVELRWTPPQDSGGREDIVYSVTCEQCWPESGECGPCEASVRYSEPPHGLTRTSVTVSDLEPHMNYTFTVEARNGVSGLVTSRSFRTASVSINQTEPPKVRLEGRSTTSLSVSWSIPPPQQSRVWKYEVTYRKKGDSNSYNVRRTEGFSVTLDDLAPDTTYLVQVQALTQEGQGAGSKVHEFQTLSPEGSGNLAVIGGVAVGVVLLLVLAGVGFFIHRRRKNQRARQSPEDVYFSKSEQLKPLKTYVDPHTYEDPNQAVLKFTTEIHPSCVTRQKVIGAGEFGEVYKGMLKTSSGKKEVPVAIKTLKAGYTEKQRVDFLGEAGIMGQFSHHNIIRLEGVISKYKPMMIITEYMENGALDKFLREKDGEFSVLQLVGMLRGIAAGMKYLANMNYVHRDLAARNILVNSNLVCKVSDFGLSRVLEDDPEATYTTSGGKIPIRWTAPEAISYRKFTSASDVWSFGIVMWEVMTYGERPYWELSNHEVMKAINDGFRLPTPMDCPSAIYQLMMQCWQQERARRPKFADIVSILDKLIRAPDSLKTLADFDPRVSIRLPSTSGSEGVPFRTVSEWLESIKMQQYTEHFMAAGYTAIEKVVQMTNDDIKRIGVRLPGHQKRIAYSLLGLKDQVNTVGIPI
cKit(h), sequence (P10721 26-976): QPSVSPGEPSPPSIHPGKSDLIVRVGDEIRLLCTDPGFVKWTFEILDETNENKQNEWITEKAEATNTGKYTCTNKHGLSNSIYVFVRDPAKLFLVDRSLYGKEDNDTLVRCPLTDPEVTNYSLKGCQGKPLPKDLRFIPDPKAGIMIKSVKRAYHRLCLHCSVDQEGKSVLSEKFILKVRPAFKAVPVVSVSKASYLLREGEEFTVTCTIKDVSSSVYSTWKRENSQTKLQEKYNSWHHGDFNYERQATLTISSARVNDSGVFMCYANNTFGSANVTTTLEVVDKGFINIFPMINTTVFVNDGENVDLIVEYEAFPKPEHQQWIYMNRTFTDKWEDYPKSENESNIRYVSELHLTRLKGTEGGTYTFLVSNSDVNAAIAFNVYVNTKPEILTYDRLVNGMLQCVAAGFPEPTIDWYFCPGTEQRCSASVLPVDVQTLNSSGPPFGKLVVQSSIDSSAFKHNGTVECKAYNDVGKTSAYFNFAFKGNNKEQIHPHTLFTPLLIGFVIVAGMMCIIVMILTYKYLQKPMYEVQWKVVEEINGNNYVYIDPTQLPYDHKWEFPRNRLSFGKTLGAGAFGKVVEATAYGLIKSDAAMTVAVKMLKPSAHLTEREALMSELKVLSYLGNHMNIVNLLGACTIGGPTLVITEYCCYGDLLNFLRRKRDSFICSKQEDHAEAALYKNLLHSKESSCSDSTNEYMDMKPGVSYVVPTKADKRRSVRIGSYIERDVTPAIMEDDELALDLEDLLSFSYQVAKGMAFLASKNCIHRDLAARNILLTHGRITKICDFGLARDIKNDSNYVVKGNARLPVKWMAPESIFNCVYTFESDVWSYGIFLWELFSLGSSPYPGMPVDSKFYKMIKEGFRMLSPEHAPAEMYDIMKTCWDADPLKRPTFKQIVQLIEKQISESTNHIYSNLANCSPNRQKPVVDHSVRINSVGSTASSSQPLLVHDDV
EphA5(h), sequence (P54756 25-1037): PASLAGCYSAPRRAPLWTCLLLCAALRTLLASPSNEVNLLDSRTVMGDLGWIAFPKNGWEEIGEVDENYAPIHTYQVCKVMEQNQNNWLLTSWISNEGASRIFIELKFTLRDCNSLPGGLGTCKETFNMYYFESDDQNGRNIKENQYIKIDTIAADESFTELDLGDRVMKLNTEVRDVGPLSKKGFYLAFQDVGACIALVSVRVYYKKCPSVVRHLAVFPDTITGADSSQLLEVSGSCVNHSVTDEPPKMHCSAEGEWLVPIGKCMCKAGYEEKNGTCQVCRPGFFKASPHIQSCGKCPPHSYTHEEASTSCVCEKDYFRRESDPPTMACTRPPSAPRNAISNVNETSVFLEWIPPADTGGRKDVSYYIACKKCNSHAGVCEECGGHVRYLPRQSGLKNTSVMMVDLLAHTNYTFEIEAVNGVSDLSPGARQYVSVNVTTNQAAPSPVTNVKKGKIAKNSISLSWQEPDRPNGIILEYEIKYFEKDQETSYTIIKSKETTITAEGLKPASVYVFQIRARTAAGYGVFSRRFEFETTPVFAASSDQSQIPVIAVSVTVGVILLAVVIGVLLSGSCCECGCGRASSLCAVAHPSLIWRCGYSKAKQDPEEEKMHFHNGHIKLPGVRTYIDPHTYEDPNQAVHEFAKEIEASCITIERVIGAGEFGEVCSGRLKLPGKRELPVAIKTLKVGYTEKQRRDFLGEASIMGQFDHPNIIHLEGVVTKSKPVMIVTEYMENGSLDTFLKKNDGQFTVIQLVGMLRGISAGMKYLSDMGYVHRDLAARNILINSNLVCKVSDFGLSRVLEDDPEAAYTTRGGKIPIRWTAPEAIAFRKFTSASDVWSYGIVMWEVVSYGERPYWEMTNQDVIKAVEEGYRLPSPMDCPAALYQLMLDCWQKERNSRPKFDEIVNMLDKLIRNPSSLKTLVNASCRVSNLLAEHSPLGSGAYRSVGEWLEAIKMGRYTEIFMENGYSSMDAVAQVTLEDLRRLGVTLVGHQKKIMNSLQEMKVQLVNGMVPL
SNRK(h), sequence (Q9NRH2 whole entry): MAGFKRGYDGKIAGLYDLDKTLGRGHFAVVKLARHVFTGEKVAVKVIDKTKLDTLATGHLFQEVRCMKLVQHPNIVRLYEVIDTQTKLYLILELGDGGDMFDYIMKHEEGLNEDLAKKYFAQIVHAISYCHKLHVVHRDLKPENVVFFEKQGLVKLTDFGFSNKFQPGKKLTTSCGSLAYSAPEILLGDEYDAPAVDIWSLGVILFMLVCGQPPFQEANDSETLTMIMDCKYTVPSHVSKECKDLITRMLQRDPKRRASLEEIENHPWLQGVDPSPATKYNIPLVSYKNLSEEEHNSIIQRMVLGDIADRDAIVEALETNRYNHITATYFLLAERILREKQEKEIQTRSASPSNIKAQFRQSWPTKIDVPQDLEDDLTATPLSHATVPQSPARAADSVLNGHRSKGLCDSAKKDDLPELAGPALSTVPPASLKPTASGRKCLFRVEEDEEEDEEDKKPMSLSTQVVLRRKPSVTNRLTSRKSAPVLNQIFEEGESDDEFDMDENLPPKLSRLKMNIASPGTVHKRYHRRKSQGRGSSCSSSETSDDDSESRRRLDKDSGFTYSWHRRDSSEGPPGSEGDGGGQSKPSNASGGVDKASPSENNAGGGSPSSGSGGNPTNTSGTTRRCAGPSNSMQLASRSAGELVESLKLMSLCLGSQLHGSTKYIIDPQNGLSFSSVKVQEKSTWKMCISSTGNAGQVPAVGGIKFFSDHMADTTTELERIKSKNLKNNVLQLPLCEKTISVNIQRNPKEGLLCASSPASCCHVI

## Cc1cc2c(-c3ccc(NC(=O)[C@H](N)CC(C)(C)C)cc3C)ccnc2[nH]1 [Compound F-90, (2R)-2-Amino-4,4-dimethyl-N-[3-methyl-4-(2-methyl-1H-pyrrolo[2,3-b]pyridin-4-yl)phenyl]pentanamide]
A-Raf(h)
  % Activity: 97%
ALK(h)
  % Activity: 77%
ALK2(h)
  % Activity: 122%
Aurora-A(h)
  % Activity: 97%
cKit(h)
  % Activity: 85%
EphA2(h)
  % Activity: 95%
EphA5(h)
  % Activity: 89%
EphA8(h)
  % Activity: 115%
FGFR4(h)
  % Activity: 114%
Flt3(h)
  % Activity: 84%
IR(h)
  % Activity: 94%
Itk(h)
  % Activity: 86%
Lyn(h)
  % Activity: 80%
MAP4K4(h)
  % Activity: 101%
MAPKAP-K2(h)
  % Activity: 72%
MAPKAP-K3(h)
  % Activity: 125%
MARK4(h)
  % Activity: 92%
MLK4(h)
  % Activity: 112%
NEK4(h)
  % Activity: 90%
PDHK4(h)
  % Activity: 101%
[1]
  % Activity: 96%
Pim-3(h)
  % Activity: 103%
PKA(h)
  % Activity: 109%
PKBγ(h)
  % Activity: 101%
PKCδ(h)
  % Activity: 93%
Plk4(h)
  % Activity: 92%
PRAK(h)
  % Activity: 107%
PRK1(h)
  % Activity: 91%
Rsk3(h)
  % Activity: 112%
SNRK(h)
  % Activity: 111%
STK39(h)
  % Activity: 102%
Tec(h) activated
  % Activity: 126%
TTBK1(h)
  % Activity: 96%
